Experimental data: patent US7989445B2, “Thienopyrimidone compound” (Takeda Pharmaceutical Company Limited, priority 2005, dated 2011)
Structures can show the parent of a compound that is named as a salt.

melting point [°C] | Compound
285 to 287 | O=C(Cn1cnc2cc(-c3ccc(Cl)cc3)sc2c1=O)c1ccc2c(c1)CCN(C(=O)C(F)(F)F)CC2 [Example 10, 6-(4-chlorophenyl)-3-{2-oxo-2-[3-(trifluoroacetyl) -2,3,4,5-tetrahydro-1H-3-benzazepin-7-yl]ethyl}thieno[3,2-d]pyrimidin-4(3H)-one]
165 to 170 | CC(C)(C)OC(=O)N1CCN(Cc2ccc(CCn3cnc4cc(-c5ccc(Cl)cc5)sc4c3=O)cc2)C(=O)C1 [Example 37, tert-butyl 4-(4-{2-[6-(4-chlorophenyl)-4-oxothieno[3,2-d]pyrimidin-3(4H)-yl]ethyl}benzyl)-3-oxopiperazine-1-carboxylate]
130 | CN(CC(=O)OC(C)(C)C)Cc1ccc(CCn2cnc3cc(-c4ccc(Cl)cc4)sc3c2=O)cc1 [Example 29, N-(4-{2-[6-(4-chlorophenyl)-4-oxothieno[3,2-d]pyrimidin-3(4H) -yl]ethyl}benzyl)-N-methylglycine tert-butyl ester]
160 to 163 | CC(c1ccc(CCn2cnc3cc(-c4ccc(Cl)cc4)sc3c2=O)cc1)N1CC[C@H](F)C1 (stereo partly drawn) [Example 19, 6-(4-chlorophenyl)-3-[2-[4-[1-[(3S)-3-fluoropyrrolidin-1-yl]ethyl]phenyl]ethyl]thieno[3,2-d]pyrimidin-4(3H)-one]
235 to 238 | CN(Cc1ccc(C(=O)Cn2cnc3cc(-c4ccc(Cl)cc4)sc3c2=O)cc1)C(=O)C(F)(F)F [Example 12, N-(4-{[6-(4-chlorophenyl)-4-oxothieno[3,2-d]pyrimidin-3(4H) -yl]acetyl}benzyl)-2,2,2-trifluoro-N-methylacetamide]
204 to 207 | CC(=O)N1CCN(Cc2ccc(CCn3cnc4cc(-c5ccc(Cl)cc5)sc4c3=O)cc2)C(=O)C1 [Example 39, 3-(2-{4-[(4-acetyl-2-oxopiperazin-1-yl)methyl]phenyl}ethyl)-6-(4-chlorophenyl)thieno[3,2-d]pyrimidin-4(3H)-one]
193 to 194 | CC(=O)N(C)N(C(=O)OC(C)(C)C)c1ccc(CCn2cnc3cc(-c4ccc(Cl)cc4)sc3c2=O)cc1 [Example 20]
> 300 | CNCc1ccc(CCn2cnc3cc(-c4ccc(Cl)cc4)sc3c2=O)cc1 (as salt: hydrochloride) [Example 4, 6-(4-chlorophenyl)-3-(2-{4-[(methylamino)methyl]phenyl}ethyl)thieno[3,2-d]pyrimidin-4(3H)-one dihydrochloride]
226 to 229 | CNC1Cc2ccc(C(=O)Cn3cnc4cc(-c5ccc(Cl)cc5)sc4c3=O)cc2C1 (centres unmarked) [Example 16, 6-(4-chlorophenyl)-3-{2-[2-(methylamino)-2,3-dihydro-1H-inden-5-yl]-2-oxoethyl}thieno[3,2-d]pyrimidin-4(3H)-one]
250 to 251 | CC(=O)N(C)Cc1ccc(C(=O)Cn2cnc3cc(-c4ccc(Cl)cc4)sc3c2=O)cc1 [Example 14, N-(4-{[6-(4-chlorophenyl)-4-oxothieno[3,2-d]pyrimidin-3(4H) -yl]acetyl}benzyl)-N-methylacetamide]
178 | CN(Cc1ccc(CCn2cnc3cc(-c4ccc(Cl)cc4)sc3c2=O)cc1)C(=O)C1CC1 [Example 7, N-(4-{2-[6-(4-chlorophenyl)-4-oxothieno[3,2-d]pyrimidin-3(4H) -yl]ethyl}benzyl)-N-methylcyclopropanecarboxamide]
285 to 288 | CCN1CCN(Cc2ccc(CCn3cnc4cc(-c5ccc(Cl)cc5)sc4c3=O)cc2)C(=O)C1=O [Example 34, 1-(4-{2-[6-(4-chlorophenyl)-4-oxothieno[3,2-d]pyrimidin-3(4H) -yl]ethyl}benzyl)-4-ethylpiperazine-2,3-dione]
146 to 149 | CNC(=O)CN(C)Cc1ccc(CCn2cnc3cc(-c4ccc(Cl)cc4)sc3c2=O)cc1 [Example 31, N^2-(4-{2-[6-(4-chlorophenyl)-4-oxothieno[3,2-d]pyrimidin-3(4H) -yl]ethyl}benzyl)-N,N^2-dimethylglycinamide]
232 to 234 | O=C1CN(Cc2ccc(CCn3cnc4cc(-c5ccc(Cl)cc5)sc4c3=O)cc2)CCN1 [Example 35, 6-(4-chlorophenyl)-3-(2-{4-[(3-oxopiperazin-1-yl)methyl]phenyl}ethyl)thieno[3,2-d]pyrimidin-4(3H)-one]
230 to 232 | CN(Cc1ccc(CCn2cnc3cc(-c4ccc(Cl)cc4)sc3c2=O)cc1)S(C)(=O)=O [Example 24, N-(4-{2-[6-(4-chlorophenyl)-4-oxothieno[3,2-d]pyrimidin-3(4H) -yl]ethyl}benzyl)-N-methylmethanesulfonamide]
252 to 253 | CN(CC(=O)O)Cc1ccc(CCn2cnc3cc(-c4ccc(Cl)cc4)sc3c2=O)cc1 (as salt: hydrochloride) [Example 30, N-(4-{2-[6-(4-chlorophenyl)-4-oxothieno[3,2-d]pyrimidin-3(4H) -yl]ethyl}benzyl)-N-methylglycine dihydrochloride]
271 to 278 | O=C1CNCCN1Cc1ccc(CCn2cnc3cc(-c4ccc(Cl)cc4)sc3c2=O)cc1 (as salt: hydrochloride) [Example 38, 6-(4-chlorophenyl)-3-(2-{4-[(2-oxopiperazin-1-yl)methyl]phenyl}ethyl)thieno[3,2-d]pyrimidin-4(3H)-one dihydrochloride]
243 to 246 | O=C1C[C@@H](O)CN1Cc1ccc(CCn2cnc3cc(-c4ccc(Cl)cc4)sc3c2=O)cc1 [Example 33, 6-(4-chlorophenyl)-3-[2-(4-{[(4R)-4-hydroxy-2-oxopyrrolidin-1-yl]methyl}phenyl)ethyl]thieno[3,2-d]pyrimidin-4(3H)-one]
196 to 198 | CC(=O)NC1CCN(Cc2ccc(CCn3cnc4cc(-c5ccc(Cl)cc5)sc4c3=O)cc2)C1 (centres unmarked) [Example 36, N-[1-(4-{2-[6-(4-chlorophenyl)-4-oxothieno[3,2-d]pyrimidin-3(4H)-yl]ethyl}benzyl)pyrrolidin-3-yl]acetamide]
206 to 209 | CN(Cc1ccc(CCn2cnc3cc(-c4ccc(Cl)cc4)sc3c2=O)cc1)C(=O)OC(C)(C)C [Example 3, tert-butyl N-(4-{2-[6-(4-chlorophenyl)-4-oxothieno[3,2-d]pyrimidin-3(4H)-yl]ethyl}benzyl)-N-methylcarbamate]
181 | CN(Cc1ccc(CCn2cnc3cc(-c4ccc(Cl)cc4)sc3c2=O)cc1)C(=O)CC(C)(C)C [Example 5, N-(4-{2-[6-(4-chlorophenyl)-4-oxothieno[3,2-d]pyrimidin-3(4H)-yl]ethyl}benzyl)-N,3,3-trimethylbutanamide]
245 to 248 | CN(C(=O)C(F)(F)F)C1Cc2ccc(C(=O)Cn3cnc4cc(-c5ccc(Cl)cc5)sc4c3=O)cc2C1 (centres unmarked) [Example 15, N-(5-{[6-(4-chlorophenyl)-4-oxothieno[3,2-d]pyrimidin-3(4H) -yl]acetyl}-2,3-dihydro-1H-inden-2-yl)-2,2,2-trifluoro-N -methylacetamide]
216 to 217 | O=C1CCCCN1Cc1ccc(CCn2cnc3cc(-c4ccc(F)cc4)sc3c2=O)cc1 [Example 26, 6-(4-fluorophenyl)-3-(2-{4-[(2-oxopiperidin-1-yl)methyl]phenyl}ethyl)thieno[3,2-d]pyrimidin-4(3H)-one]
199 to 201 | O=C1CCCCN1Cc1ccc(CCn2cnc3cc(-c4ccc(Cl)cc4)sc3c2=O)cc1 [Example 25, 6-(4-chlorophenyl)-3-(2-{4-[(2-oxopiperidin-1-yl)methyl]phenyl}ethyl)thieno[3,2-d]pyrimidin-4(3H)-one]
166 to 169 | CNCC(=O)N(C)Cc1ccc(CCn2cnc3cc(-c4ccc(Cl)cc4)sc3c2=O)cc1 [Example 28, N-(4-{2-[6-(4-chlorophenyl)-4-oxothieno[3,2-d]pyrimidin-3(4H) -yl]ethyl}benzyl)-N,N^2-dimethylglycinamide]
160 to 165 | CN(C)C(=O)N(C)Cc1ccc(CCn2cnc3cc(-c4ccc(Cl)cc4)sc3c2=O)cc1 [Example 8, N-(4-{2-[6-(4-chlorophenyl)-4-oxothieno[3,2-d]pyrimidin-3(4H) -yl]ethyl}benzyl)-N,N′,N′-trimethylurea]
